Counter-ions that a name gives are not always drawn.
Columns and labels:
Assay type in all cases: cell-based
C/EBPα = assay: Real-Time RT-PCR, C/EBPα gene expression in 3T3-L1; conditions: 5 μM and 10 μM
Procedure: (§1) Real-Time RT-PCR was performed to investigate the effect of trans-ferulic acid (TFA) on transcription factors involved in lipid metabolism at mRNA expression levels. Total RNA was isolated from a control group and each test group treated with various concentrations of TFA (easy-Blue, iNtRon, INC, Daejeon, Korea) and diluted at the same concentration, and cDNA synthesis was carried out using the diluted RNA samples (cDNA reverse transcription kits, Applied Biosystems, CA, USA).
(§2) In brief, after 3T3-L1 preadipocytes were treated with TFA at various concentrations, namely 1, 2, 5 and 10 μM), Real-time qRT-PCR was performed using the primers of Table 9 (CFX96 real-time PCR detection system, Bio-Rad Laboratories, Hercules, Calif., USA). The PCR conditions included denaturation at […] for 3 min, 45 cycles of 95° C. for 5 sec and 60° C. for 20 sec, and heating up to 95° C. (by increasing the temperature at a rate of 0.2° C./15 sec) to terminate the reaction. […] Therefore, the Desalted Salicornia Powder (DSP) containing TFA as an effective component may effectively reduce body fat by inhibiting adipocyte differentiation and lipid droplet formation and may eventually lead to a decrease in body weight, and thus has the potential to be applied as a functional food and feedstuff for preventing and/or treating obesity.

SREBP-1 = assay: Real-Time RT-PCR, SREBP-1 gene expression in 3T3-L1; conditions: 1, 2, 5 and 10 μM; largest decrease at 10 μM
Procedure: as §1, §2

FAS = assay: Real-Time RT-PCR, FAS gene expression in 3T3-L1; conditions: 1, 2, 5 and 10 μM; largest decrease at 10 μM
Procedure: as §1, §2

3T3-L1 cells [1] = assay: Oil Red O staining of lipid droplets during adipocyte differentiation
Procedure: The major marker component of the desalted Salicornia powder, trans-ferulic acid (TFA), was evaluated for its inhibitory effect on adipocyte differentiation using 3T3-L1 cells as an in-vitro model of adipocyte differentiation. 3T3-L1 preadipocytes were checked for contamination every eight hours to improve confidence in the experiment. Primary preadipocytes were propagated, and were then induced to differentiate with a culture medium containing 3-isobutyl-1-methylxanthine (IBMX), dexamethasone and insulin. During the differentiation induction, the medium was changed twice every three days. After being induced to differentiate, 3T3-L1 cells were subjected to Oil Red O staining to detect the presence of intracellular lipid droplets. First, the medium was discarded from each well, and cells were fixed with 4% paraformaldehyde. Subsequently, cells were washed with 100% 1,2-propanediol dehydration solution for 5 min and then stained with Oil Red O stain solution. After Oil Red O staining, 85% 1,2-propanediol stain differential solution was added to each well for cell washing. Finally, distilled water was added to each well to prevent stained cells from drying, and cells were observed under a microscope to determine lipid accumulation.

3T3-L1 cells [2] = assay: Intracellular triglyceride formation during adipocyte differentiation
Procedure: The major marker component of the desalted Salicornia powder, trans-ferulic acid (TFA), was evaluated for its inhibitory effect on adipocyte differentiation using 3T3-L1 cells as an in-vitro model of adipocyte differentiation. 3T3-L1 preadipocytes were checked for contamination every eight hours to improve confidence in the experiment. Primary preadipocytes were propagated, and were then induced to differentiate with a culture medium containing 3-isobutyl-1-methylxanthine (IBMX), dexamethasone and insulin. During the differentiation induction, the medium was changed twice every three days. In addition, as a marker for adipocyte differentiation, intracellular triglyceride formation was investigated.

PPARγ = assay: Real-Time RT-PCR, PPARγ gene expression in 3T3-L1; conditions: 10 μM
Procedure: as §1, §2

`COc1cc(/C=C/C(=O)O)ccc1O` [TFA, trans-ferulic acid] was tested. Which “C/EBPα gene expression compared to differentiation-induced control (MDI)” value (C/EBPα) did it give?
The value was “significantly reduced in a dosage-dependent manner”.

What about the “SREBP-1 gene expression compared to differentiation-induced control (MDI)” value (SREBP-1) of the same molecule?
Its value is “reduced in a dosage-dependent manner”.

What about the “FAS gene expression compared to differentiation-induced control (MDI)” value (FAS) of the same molecule?
Its value is “reduced in a dosage-dependent manner”.

And the “inhibition of lipid droplet formation compared to differentiation-induced control (MDI)” value (3T3-L1 cells [1]; 5 μM and 10 μM)?
The value was “remarkably significant inhibition”.

And the “adipocyte differentiation and lipid droplet formation (Oil Red O)” value (3T3-L1 cells [1]; within the used concentrations)?
The value was “inhibit adipocyte differentiation and lipid droplet formation in a dosage-dependent manner”.

What about the “triglyceride formation compared to differentiation-induced control (MDI)” value (3T3-L1 cells [2]; 5 μM and 10 μM) of the same molecule?
Its value is “remarkably significantly inhibited”.

What about the intracellular triglyceride formation (3T3-L1 cells [2]; 1, 2, 5 and 10 μM) of the same molecule?
Its intracellular triglyceride formation is “reduced intracellular triglyceride formation in a dosage-dependent manner”.

What about the PPARγ gene expression (PPARγ) of the same molecule?
Its PPARγ gene expression is “significantly reduced”.
